Test results reported in PMC10780819, “Enhanced Cytotoxicity and Antimelanoma Activity of Novel Semisynthetic Derivatives of Betulinic Acid with Indole Conjugation” (Plants, 2023).
Entries after “also recorded” stand apart in the source; their conditions may differ.

Experiments:
[1] = system: murine melanoma B164A5 cells; assay: Hoechst 33342 nuclear staining; format: cell-based; conditions: 25, 50, 75 μM tested; exposure per Figure 7 legend
Description: The procedure was implemented in accordance with the manufacturer’s recommendations. […] A positive control was used to induce apoptosis, using a concentration of 5 µM staurosporine for a duration of 3 h at a temperature of 37 °C. Similarly, for necrosis induction, a concentration of 0.5% Triton X-100 was utilized, with an incubation period of 30 min at 37 °C.

in vitro = conditions: human
Description: (§1) The effect of testing substances (BI and BA1-BA4) on the survival of human keratinocytes cell line HaCat was also assessed.
(§2) The MTT assay was used to determine the effect of 2,3-indolo-betulinic acid derivatives and betulinic acid on the viability of HaCaT human keratinocyte cell line and B164A5 murine melanoma cells. […] Briefly, 1 × 10^4 cells per well were seeded onto 96-well culture plates and incubated until 70–80% confluence was achieved. Subsequently, the cells were subjected to stimulation for a duration of 72 h using five distinct concentrations (1, 10, 25, 50, and 75 µM) of the test samples. Following a 72 h incubation period, a 10 μL amount of a 5 mg/mL MTT solution obtained from the MTT kit (Sigma-Aldrich, St. Louis, MO, USA) was introduced into each well and subjected to an additional 3 h incubation. The formazan crystals that had been yielded were dissolved by the addition of 100 μL per well of the lysis solution that was included in the MTT kit. B164A5 cells and HaCaT cells were used as a control, and they were only treated with culture medium for 72 h. The spectrophotometric analysis of absorbance was performed at a wavelength of 570 nm using a microplate reader (BioRad, Hercules, CA, USA, xMark Microplate Spectrophotometer).

B164A5 cells = assay: Scratch (wound healing) anti-migratory assay; format: cell-based, murine; conditions: 50 µM, 24 h
Description: To evaluate the invasion capability of B164A5 cells after stimulation with the tested compounds (1, 10, 25, and 50 µM), a scratch-based experiment was conducted. In summary, a quantity of 2 × 10^5 cells/well were evenly distributed onto 12-well culture plates until a complete and cohesive layer of cells was achieved. Subsequently, a sterile pipette tip was used to create a void in the center of each well. The cells and cellular debris that were detached subsequent to the process were carefully rinsed using phosphate buffer saline (PBS). Additionally, the cells were subjected to stimulation with the tested compounds. Photographs of the scratched region were captured at two time points: 0 h and 24 h. The images were obtained using an inverted microscope (Olympus IX73, Olympus, Tokyo, Japan) with a DP74 camera (Olympus, Tokyo, Japan) at a magnification of 10×. The cellSense Dimension program was used for the purpose of analyzing cell growth.
The scratch closure rate was calculated using the formula [78]:Scratch closure rate = [(At0 − At)/[…]] × 100, where At0 represents the initial scratch area at time 0 h, and At represents the scratch area after 24 h.

[2] = system: B164A5 murine melanoma cells; assay: MTT cell viability assay on B164A5; conditions: for viability at 75 µM: read-out: cell viability (growth percentage), 75 µM, 72 h, MTT; for viability at 1 µM: read-out: cell viability, 1 µM, 72 h, MTT; for reduction of cellular viability: 1 µM, 72 h, MTT
Description: as §2

[3] = system: human melanoma cell line A375; design: method as in PMID 36986941; conditions: cited from earlier work; for wound healing rate: 50 µM
[4] = system: A375 human melanoma cells; design: method as in PMID 27553358; conditions: 72 h incubation; cited from earlier work
[5] = system: murine melanoma cells B164A5; design: cell viability: dose or concentration left out as unconfirmed; conditions: cited from earlier work
[6] = system: HaCaT human keratinocyte cell line; assay: MTT cell viability assay on HaCaT; conditions: for reduction in cell viability: increasing dosages (25, 50, and 75 μM), 72 h
Description: as §1, §2

[7] = system: human melanoma A375 cells; conditions: cited from earlier work; for cytotoxic effect (LDH): 25 µM
[8] = system: murine melanoma cells (B164A5); assay: Neutral Red (NR) cytotoxicity assay; conditions: 75 µM, 72 h
Description: In addition to undertaking the MTT proliferation assessment, the NR technique was used to measure the cytotoxicity rate of the substances being studied. The underlying premise of this methodology depends upon the measurement of live cells using the NR chromophore, which effectively stains the lysosome of living cells. […] Consequently, live cells have the capability to secrete the NR dye when subjected to acidic conditions. Moreover, the intensity of the dye may be directly associated with the quantity of living cells, thereby enabling the assessment of drug-induced cytotoxicity.
In summary, the experimental procedure included subjecting the cells to five different doses (1, 10, 25, 50, and 75 µM) of test samples for a duration of 72 h. Subsequently, a volume of 10 μL of a 0.33% NR solution was introduced into each well, followed by an incubation period of at least 3 h. Following the completion of the incubation time, the medium was extracted, and the cells were promptly rinsed with a 50 μL solution of NR assay fixative. Subsequently, a solubilization step was carried out using a 100 μL solution of NR assay solubilization solution per well.

HaCaT cells = conditions: concentrations over 10 μM; cited from earlier work
[9] = system: B164A5 murine melanoma cells; assay: Lactate dehydrogenase (LDH) release assay; conditions: 75 µM, 72 h
Description: The LDH technique is used to evaluate the extracellular release of internal lactate dehydrogenase subsequent to the disruption of the cellular membrane.
The present investigation used the LDH test to assess the cytotoxicity and necrosis-related events that transpired after the exposure of B164A5 murine melanoma cells to the test samples for a duration of 72 h.
The experimental procedure was conducted in accordance with the instructions outlined in the pierce LDH cytotoxicity assay kit, which was supplied by the manufacturer (Thermo Fisher Scientific, Boston, MA, USA).

[10] = MTT cell viability assay on HaCaT; conditions: human, HaCaT keratinocyte cells
Description: as §1, §2

SK-MEL-2 cells = system: SK-MEL-2 cells; design: method as in doi:10.1134/S1068162018030081; conditions: 100 µM, 48 h; cited from earlier work
Lox IMVI melanoma cells = system: Lox IMVI melanoma cells; design: method as in doi:10.1134/S1068162018030081; conditions: 100 µM, 48 h; cited from earlier work

SMILES	nuclear changes (apoptosis / necrosis) [1]	viability at 72 h, 75 µM (in vitro)	wound healing rate (scratch closure rate) (B164A5 cells)	IC50 ([2]; Mus musculus, B16-4A5, 72 h)	viability at 75 µM ([2]; Mus musculus, B16-4A5, 72 h)	viability at 1 µM ([2]; Mus musculus, B16-4A5, 72 h)	inhibitory activity relative to BA4 ([2]; ratio of IC50 values)	wound healing rate [3]	reduction of cellular viability [2]	reduction in cell viability [6]	cytotoxic effect (LDH) [7]	also measured
C=C(C)[C@@H]1CC[C@]2(C(=O)NCC(=O)O)CC[C@]3(C)[C@H](CC[C@@H]4[C@@]5(C)Cc6c([nH]c7ccccc67)C(C)(C)[C@@H]5CC[C@]43C)[C@@H]12 [BA3, N-(2,3-indolo-betulinoyl)glycine]	necrosis process being observed from concentration of 25 μM; also recorded: necrotic process being apparent at a dosage of 25 μM	~70%	21.3%	8.11 ± 0.13 µM	-1.5%	8.1%	approximately 2.20 fold					
C=C(C)[C@@H]1CC[C@]2(C(=O)NCC(=O)NCC(=O)O)CC[C@]3(C)[C@H](CC[C@@H]4[C@@]5(C)Cc6c([nH]c7ccccc67)C(C)(C)[C@@H]5CC[C@]43C)[C@@H]12 [BA2, N-(2,3-indolo-betulinoyl)glycylglycine]	specific signs of apoptosis (chromatin condensation) at both concentrations of 50 and 75 μM; also recorded: distinct signs of apoptosis, such as chromatin condensation, at both concentrations of 50 and 75 μM	~70%	10.0%	9.15 ± 0.05 µM		15.9%	approximately 2.20 fold	30%	15%			viability at 50 µM ([2]; Mus musculus, B16-4A5, 72 h, read-out: cell viability, 50 µM, 72 h, MTT): 0.41%
C=C(C)[C@@H]1CC[C@]2(C(=O)NCC(=O)NCC(=O)NCC(=O)O)CC[C@]3(C)[C@H](CC[C@@H]4[C@@]5(C)Cc6c([nH]c7ccccc67)C(C)(C)[C@@H]5CC[C@]43C)[C@@H]12 [BA1, N-(2,3-indolo-betulinoyl)diglycylglycine]	apoptosis features only at a concentration of 75 μM; also recorded: apoptotic characteristics only at a concentration of 75 μM	~70%		10.34 ± 0.06 µM	5.7%			35%	27%			IC50 [4]: 5.7 µM
C=C(C)[C@@H]1CC[C@]2(C(=O)O)CC[C@]3(C)[C@H](CC[C@@H]4[C@@]5(C)CC[C@H](O)C(C)(C)[C@@H]5CC[C@]43C)[C@@H]12 [BI, Betulinic acid]	necrosis only from a concentration of 50 μM; also recorded: necrosis was evident in cells exposed to BA4 and BI only at a concentration of 50 μM		34.9%	21.14 ± 0.08 µM	9.6%	31.3%			32%	around 21%	21.2%	reduction in cell viability ([5]; 25 µM, 48 h of exposure): 40%; cell viability ([5]; 72 h of exposure): 50%; cell viability diminished by ([6]; concentrations exceeding 10 µM): approximately 20%; scratch closure rate ([3]; 25 µM): 17.5%; cytotoxicity rate (NR assay) [8]: 63.0%; decrease in cell viability (HaCaT cells): 20%; LDH release (cytotoxic rate) [9]: 52.7%; reduction in cell viability ([2]; 25 µM, 72 h exposure): 71%
C=C(C)C1CCC2(C(=O)O)CCC3(C)C(CCC4C5(C)Cc6c([nH]c7ccccc67)C(C)(C)C5CCC43C)C12 (stereo not shown) [BA4, 2,3-indolo-betulinic acid]	necrosis only from a concentration of 50 μM; also recorded: necrosis was evident in cells exposed to BA4 and BI only at a concentration of 50 μM			17.62 ± 0.11 µM	15%					around 21%	43.36%	viability at 72 h, 75 µM [10]: 80.3%; cytotoxic rate (LDH) ([7]; 75 µM): 32.8%; viability rate (SK-MEL-2 cells): 57%; viability percentage (Lox IMVI melanoma cells): 44%; activity relative to parent triterpenoid BI ([2]; ratio of IC50 values): 1.2 times
